Assay results published in article PMC11642016 (International Journal of Molecular Sciences, 2024).
Where “and” joins values, the source holds several entries; their conditions need not be identical. Identical values can stand only once. Like-named read-outs stand apart in the source and are kept apart here.

Tests used:
PANC-1 and Fadu cells = experiment: CellTiter-Glo viability, statements covering both cancer cell lines; type: cell-based, human; details: 8.3 µM; both PANC-1 and Fadu; first-set screening
Protocol: The effects of the synthesized compounds on cell viability were measured using the CellTiter-Glo® luminescent cell viability assay (Promega, Madison, WI, USA), according to the manufacturer’s instructions. […] After seeding, cells were incubated for a further 48 h before treatment. Cells were treated with the compounds for 72 h. […] After treatment, the luminescence signal was recorded using a microplate reader (BioTek Synergy 2 Multi-Mode Reader, BioTek, Winooski, VT, USA).

PANC-1 cells = experiment: CellTiter-Glo luminescent cell viability assay, PANC-1; details: for Cell Viability (% of Control) 2.8 µM / Cell Viability (% of Control) 8.3 µM / Cell Viability (% of Control) 25 µM: PANC-1, mean ± SD, n = 2
Protocol: Primary fibroblast cultures were prepared from human skin biopsies and maintained in DMEM supplemented with 10% FBS, 1% penicillin-streptomycin, and 1% MEM Non-Essential Amino Acids Solution (Thermo Fisher Scientific). […] All cell lines were cultured in a humidified atmosphere at 37 °C and 5% CO2, passaged twice a week, and the experiments were performed on cells between passage 5 and 15. The cell lines were routinely screened for the absence of mycoplasma infection (DAPI staining).
The effects of the synthesized compounds on cell viability were measured using the CellTiter-Glo® luminescent cell viability assay (Promega, Madison, WI, USA), according to the manufacturer’s instructions. Briefly, cells were seeded onto a flat-bottomed, white 96-well plate (BRANDplates, cat. no.: 781965)), with the following densities: PANC-1: 750 cells/well, Fadu: 2000 cells/well, primary fibroblasts: 2000 cells/well, HEK293T WT: 1000 cells/well, HEK293T CLPP^−/−: 2500 cells/well. After seeding, cells were incubated for a further 48 h before treatment. Cells were treated with the compounds for 72 h. Three concentrations (25.0 µM; 8.3 µM; 2.8 µM) were applied during the initial cell viability screening, while for the determination of dose–response curves, 1.5-fold serially diluted compound concentrations were applied (range: 26 µM–0.7 µM). After treatment, the luminescence signal was recorded using a microplate reader (BioTek Synergy 2 Multi-Mode Reader, BioTek, Winooski, VT, USA).
Data analysis was performed using GraphPad Prism 9.5.0 software (GraphPad Software, San Diego, CA, USA). […] The dose–response curves were generated by four-parameter nonlinear regression, and the IC50 values were determined as the means ± SEM of the best-fit values of 3 independent measurements. The R^2 values were consistently above 0.93, indicating a strong fit of the model to the experimental data (Supplementary S.89). […] Dunnett’s post hoc test was applied to adjust for multiple comparisons, minimizing the likelihood of false positive results. Assumptions for ANOVA, including normality (assessed via QQ plots) and homogeneity of variance (tested using the Brown–Forsythe test), were verified. The following significance levels were applied: * p < 0.05, ** p < 0.01, *** p < 0.001, **** p < 0.0001. […] The tumor selectivity of the compounds was quantitatively characterized by the selectivity index (SI). This parameter was calculated as the ratio of the average best-fit IC50 value for primary fibroblasts and the best-fit IC50 value for the corresponding tumor cells (PANC-1 or Fadu).

Fadu cells = experiment: CellTiter-Glo luminescent cell viability assay, Fadu; details: for Cell Viability (% of Control) 2.8 µM / Cell Viability (% of Control) 8.3 µM / Cell Viability (% of Control) 25 µM: Fadu, mean ± SD, n = 2
[1] = CellTiter-Glo luminescent cell viability assay, primary fibroblasts; details: human, primary skin fibroblasts (non-tumorous), Primer fibroblast Cell viability (% of controll), 72 h, dose–response, individual replicates
[2] = tested on: non-tumorous primary fibroblast cells; experiment: as above; details: 72 h; for Primer fibroblast Cell viability (% of controll): dose–response, individual replicates
[3] = 0.7 μM, 72 h, dose–response, individual replicates
[4] = 1 μM, 72 h, dose–response, individual replicates
[5] = 2.3 μM, 72 h, dose–response, individual replicates
[6] = 3.4 μM, 72 h, dose–response, individual replicates
[7] = 5.1 μM, 72 h, dose–response, individual replicates
[8] = 7.7 μM, 72 h, dose–response, individual replicates
[9] = 17.3 μM, 72 h, dose–response, individual replicates
[10] = 26 μM, 72 h, dose–response, individual replicates

## NCC#Cc1cccc(CN2C(=O)C3=C(CCN(Cc4ccc(-n5cc(-[c-]6cccc6)nn5)cc4)C3)N3CCN=C23)c1.[Fe+2].c1cc[cH-]c1 [2a]
PANC-1 and Fadu cells
  eradication of cancer cells at 8.3 µM: practically complete eradication of both types of cancer cells
PANC-1 cells; 72 h, first-set screening
  Cell Viability (% of Control) 2.8 µM: 92 ± 2 % of Control
  Cell Viability (% of Control) 8.3 µM: 0 ± 0 % of Control
  Cell Viability (% of Control) 25 µM: 0 ± 0 % of Control
PANC-1 cells; 72 h, second-set screening
  Cell Viability (% of Control) 2.8 µM: 117 ± 4 % of Control
  Cell Viability (% of Control) 8.3 µM: 92 ± 14 % of Control
  Cell Viability (% of Control) 25 µM: 0 ± 0 % of Control
Fadu cells; 72 h, first-set screening
  Cell Viability (% of Control) 2.8 µM: 107 ± 5 % of Control
  Cell Viability (% of Control) 8.3 µM: 3 ± 0 % of Control
  Cell Viability (% of Control) 25 µM: 0 ± 0 % of Control
Fadu cells; 72 h, second-set screening
  Cell Viability (% of Control) 2.8 µM: 114 ± 8 % of Control
  Cell Viability (% of Control) 8.3 µM: 56 ± 9 % of Control
  Cell Viability (% of Control) 25 µM: 0 ± 0 % of Control

## CNCC#Cc1cccc(CN2C(=O)C3=C(CCN(Cc4ccc(-n5cc(-c6cc(F)cc(F)c6)nn5)cc4)C3)N3CCN=C23)c1 [43c]
PANC-1 cells; [3]
  PANC-1 Cell viability (% of controll): 110 % of controll and 102 % of controll
PANC-1 cells; [4]
  PANC-1 Cell viability (% of controll): 99 % of controll and 105 % of controll
PANC-1 cells; 1.5 μM, 72 h, dose–response, individual replicates
  PANC-1 Cell viability (% of controll): 103 % of controll
PANC-1 cells; [5]
  PANC-1 Cell viability (% of controll): 80 % of controll and 82 % of controll
PANC-1 cells; [6]
  PANC-1 Cell viability (% of controll): 5 % of controll and 8 % of controll
PANC-1 cells; [7]
  PANC-1 Cell viability (% of controll): 0 % of controll
PANC-1 cells; [8]
  PANC-1 Cell viability (% of controll): 0 % of controll
PANC-1 cells; [9]
  PANC-1 Cell viability (% of controll): 0 % of controll
PANC-1 cells; [10]
  PANC-1 Cell viability (% of controll): 0 % of controll
PANC-1 cells; Homo sapiens, PANC-1, 72 h, read-out: IC50 Value ± SEM PANC-1, 72 h treatment, best-fit values, n = 3
  IC50: 2.6 ± 0.03 µM
PANC-1 cells; Homo sapiens, PANC-1, 72 h, read-out: PANC-1 Cell viability (% of controll), 0.7 μM, 72 h, dose–response, individual replicates
  viability at 0.7 µM: 104%
PANC-1 cells; Homo sapiens, PANC-1, 72 h, read-out: PANC-1 Cell viability (% of controll), 1 μM, 72 h, dose–response, individual replicates
  viability at 1 µM: 104%
PANC-1 cells; Homo sapiens, PANC-1, 72 h, read-out: PANC-1 Cell viability (% of controll), 1.5 μM, 72 h, dose–response, individual replicates
  viability at 1.5 µM: 100%
PANC-1 cells; Homo sapiens, PANC-1, 72 h, read-out: PANC-1 Cell viability (% of controll), 2.3 μM, 72 h, dose–response, individual replicates
  viability at 2.3 µM: 89%
PANC-1 cells; Homo sapiens, PANC-1, 72 h, read-out: PANC-1 Cell viability (% of controll), 3.4 μM, 72 h, dose–response, individual replicates
  viability at 3.4 µM: 6%
PANC-1 cells; Homo sapiens, PANC-1, 72 h, read-out: PANC-1 Cell viability (% of controll), 5.1 μM, 72 h, dose–response, individual replicates
  viability at 5.1 µM: 0%
PANC-1 cells; Homo sapiens, PANC-1, 72 h, read-out: PANC-1 Cell viability (% of controll), 7.7 μM, 72 h, dose–response, individual replicates
  viability at 7.7 µM: 0%
PANC-1 cells; Homo sapiens, PANC-1, 72 h, read-out: PANC-1 Cell viability (% of controll), 17.3 μM, 72 h, dose–response, individual replicates
  viability at 17.3 µM: 0%
PANC-1 cells; Homo sapiens, PANC-1, 72 h, read-out: PANC-1 Cell viability (% of controll), 26 μM, 72 h, dose–response, individual replicates
  viability at 26 µM: 0%
PANC-1 cells; Homo sapiens, PANC-1, read-out: PANC-1 IC50 values, Mean, mean of independently fitted replicate IC50 values (Supplement S.6)
  IC50: 2.63 µM
PANC-1 cells; ratio of mean best-fit IC50 for primary fibroblasts and best-fit IC50 for PANC-1
  Selectivity Index (SI) Fibroblast/PANC-1: 1.4
[1]; 0.7 μM
  viability at 72 h, 0.7 µM: 91%
[1]; 1 μM
  viability at 72 h, 1 µM: 92%
[1]; 2.3 μM
  viability at 72 h, 2.3 µM: 103%
[1]; 3.4 μM
  viability at 72 h, 3.4 µM: 80%
[1]; 5.1 μM
  viability at 72 h, 5.1 µM: 0%
[1]; 7.7 μM
  viability at 72 h, 7.7 µM: 0%
[1]; 17.3 μM
  viability at 72 h, 17.3 µM: 0%
[1]; 26 μM
  viability at 72 h, 26 µM: 0%
[2]; 0.7 μM
  Primer fibroblast Cell viability (% of controll): 98 % of controll and 102 % of controll
[2]; 1 μM
  Primer fibroblast Cell viability (% of controll): 104 % of controll and 106 % of controll
[2]; 1.5 μM
  Primer fibroblast Cell viability (% of controll): 99 % of controll and 95 % of controll and 118 % of controll
[2]; 2.3 μM
  Primer fibroblast Cell viability (% of controll): 97 % of controll and 98 % of controll
[2]; 3.4 μM
  Primer fibroblast Cell viability (% of controll): 95 % of controll and 99 % of controll
[2]; 5.1 μM
  Primer fibroblast Cell viability (% of controll): 0 % of controll
[2]; 7.7 μM
  Primer fibroblast Cell viability (% of controll): 0 % of controll
[2]; 17.3 μM
  Primer fibroblast Cell viability (% of controll): 0 % of controll
[2]; 26 μM
  Primer fibroblast Cell viability (% of controll): 0 % of controll
[2]; Homo sapiens, Fibroblast, read-out: IC50 Value ± SEM Primary Fibroblast, 72 h treatment, best-fit values, n = 3
  IC50: 3.7 ± 1.73 µM
Fadu cells; [3]
  Fadu Cell viability (% of controll): 99 % of controll and 100 % of controll
Fadu cells; [4]
  Fadu Cell viability (% of controll): 102 % of controll and 93 % of controll
Fadu cells; [5]
  Fadu Cell viability (% of controll): 90 % of controll and 79 % of controll
Fadu cells; [6]
  Fadu Cell viability (% of controll): 79 % of controll and 59 % of controll and 42 % of controll
Fadu cells; [7]
  Fadu Cell viability (% of controll): 0 % of controll
Fadu cells; [8]
  Fadu Cell viability (% of controll): 0 % of controll
Fadu cells; [9]
  Fadu Cell viability (% of controll): 0 % of controll
Fadu cells; [10]
  Fadu Cell viability (% of controll): 0 % of controll
Fadu cells; Homo sapiens, FaDu, 72 h, read-out: Fadu Cell viability (% of controll), 0.7 μM, 72 h, dose–response, individual replicates
  viability at 0.7 µM: 94%
Fadu cells; Homo sapiens, FaDu, 72 h, read-out: Fadu Cell viability (% of controll), 1 μM, 72 h, dose–response, individual replicates
  viability at 1 µM: 97%
Fadu cells; Homo sapiens, FaDu, 72 h, read-out: Fadu Cell viability (% of controll), 1.5 μM, 72 h, dose–response, individual replicates
  viability at 1.5 µM: 90%
Fadu cells; Homo sapiens, FaDu, 72 h, read-out: Fadu Cell viability (% of controll), 2.3 μM, 72 h, dose–response, individual replicates
  viability at 2.3 µM: 89%
Fadu cells; Homo sapiens, FaDu, 72 h, read-out: Fadu Cell viability (% of controll), 5.1 μM, 72 h, dose–response, individual replicates
  viability at 5.1 µM: 0%
Fadu cells; Homo sapiens, FaDu, 72 h, read-out: Fadu Cell viability (% of controll), 7.7 μM, 72 h, dose–response, individual replicates
  viability at 7.7 µM: 0%
Fadu cells; Homo sapiens, FaDu, 72 h, read-out: Fadu Cell viability (% of controll), 17.3 μM, 72 h, dose–response, individual replicates
  viability at 17.3 µM: 0%
Fadu cells; Homo sapiens, FaDu, 72 h, read-out: Fadu Cell viability (% of controll), 26 μM, 72 h, dose–response, individual replicates
  viability at 26 µM: 0%
Fadu cells; Homo sapiens, FaDu, 72 h, read-out: IC50 Value ± SEM Fadu, 72 h treatment, best-fit values, n = 3
  IC50: 3.6 ± 0.09 µM
Fadu cells; Homo sapiens, FaDu, read-out: Fadu IC50 values, Mean, mean of independently fitted replicate IC50 values (Supplement S.6)
  IC50: 3.48 µM
Fadu cells; ratio of mean best-fit IC50 for primary fibroblasts and best-fit IC50 for Fadu
  Selectivity Index (SI) Fibroblast/Fadu: 1.0
